# Measured values as given in publication PMC9636434, “Discovery of small molecule agonists of the Relaxin Family Peptide Receptor 2” (Communications Biology, 2022).
# Several values for one entry are separate records, joined by “and”; a condition that tells them apart may be missing. Equal values may be shown once. Read-outs that look alike come from different tables or passages of the source.
# Experiment: Pharmacokinetic study, 3 mg/kg IV, 10 mg/kg PO and 10 mg/kg PO QD*3, plasma, liver and bone
# Type: in vivo, mouse
# Conditions: for Plasma concentration: individual values (1)-(3)
# Protocol: The concentration of compound in plasma, liver, and long bones was detected using liquid chromatography tandem mass spectrometry (LC-MS/MS). Samples were collected after a single intraperitoneal (IP) administration at 30 mg/kg, a single intravenous (IV) administration at 3 mg/kg, a single oral (PO) administration at 10 mg/kg, and a daily PO administration for 3 consecutive days at 10 mg/kg. The compound was formulated in 75% PEG300 + 25% of 40% aq. HPBCD for IV and PO administration and in 60% Phosal + 40% PEG300 for IP administration. All tissue samples were homogenized in water at a tissue weight to water volume ratio 1:3.
# IV administration, one 10 mg/kg PO administration and three 10 mg/kg PO administrations (QD*3). a Plasma, b liver and c bone profiles in female mice. The actual concentration (ng/g) is the detected value (ng/mL) multiplied by 4. Drug vehicle is 25% aq. 40% HP-b-CD - 75% PEG300. 3 mice were used per time point. Results are expressed as the mean ± SEM.
# [1] = female, C57BL/6J, mouse, bone (long bones), iv, 3 mg/kg, bone, IV, individual animals, read-out: Bone 6641 IV concentration
# [2] = female, C57BL/6J, mouse, bone (long bones), po, 10 mg/kg, bone, PO (QD*3), individual animals, read-out: Bone 6641 PO (QD*3) concentration
# [3] = female, C57BL/6J, mouse, bone (long bones), po, 10 mg/kg, bone, PO, individual animals, read-out: Bone 6641 PO concentration
smiles,measurement,setting,value
O=C1Nc2ccc(-c3cc(C(F)(F)F)cc(C(F)(F)F)c3)cc2C(=O)N2CCN(C(=O)COc3ccc(OC(F)(F)F)cc3I)C[C@@H]12 [compound 6641],accumulation,10 mg/kg PO daily for 3 consecutive days,no accumulation
same,half-life,"C57BL/6J, mouse, in vivo, female mice, depending on the route of administration (3 mg/kg IV, 10 mg/kg PO)",4 to 6.5 h
same,bioavailability,"C57BL/6J, mouse, plasma, 10 mg/kg PO, female mice",25 to 31%
same,maximum concentration in bone tissue,"IV administration, 3 mg/kg",1072 ng/g
same,Plasma concentration,"IV, Time 0.083 h",2.772 µg/mL and 2.884 µg/mL
same,Plasma concentration,"IV, Time 0.25 h",1.472 µg/mL and 1.152 µg/mL
same,Plasma concentration,"IV, Time 0.5 h",0.786 µg/mL and 0.964 µg/mL
same,Plasma concentration,"IV, Time 1 h",0.583 µg/mL and 0.464 µg/mL
same,Plasma concentration,"IV, Time 3 h",0.259 µg/mL and 0.205 µg/mL
same,Plasma concentration,"IV, Time 7 h",0.0848 µg/mL and 0.0684 µg/mL
same,Plasma concentration,"IV, Time 24 h",0.00408 µg/mL and 0.00543 µg/mL
same,Plasma concentration,"IV, Time 48 h, N/A: Below detection level",0.000868 µg/mL
same,Plasma concentration,"PO (QD*3), Time 0.083 h",0.00756 µg/mL and 0.0052 µg/mL
same,Plasma concentration,"PO (QD*3), Time 0.25 h",0.0571 µg/mL and 0.0506 µg/mL
same,Plasma concentration,"PO (QD*3), Time 0.5 h",0.185 µg/mL and 0.245 µg/mL and 0.104 µg/mL
same,Plasma concentration,"PO (QD*3), Time 1 h",0.484 µg/mL and 0.346 µg/mL
same,Plasma concentration,"PO (QD*3), Time 3 h",0.344 µg/mL
same,Plasma concentration,"PO (QD*3), Time 7 h",0.125 µg/mL and 0.179 µg/mL
same,Plasma concentration,"PO (QD*3), Time 24 h",0.0039 µg/mL and 0.00549 µg/mL
same,Plasma concentration,"PO (QD*3), Time 48 h, N/A: Below detection level",0.001 µg/mL
same,maximum concentration in bone tissue,"PO administration, 10 mg/kg",170 to 300 ng/g
same,Plasma concentration,"PO, Time 0.25 h",0.0327 µg/mL and 0.0595 µg/mL
same,Plasma concentration,"PO, Time 0.5 h",0.159 µg/mL and 0.069 µg/mL and 0.12 µg/mL
same,Plasma concentration,"PO, Time 1 h",0.406 µg/mL and 0.323 µg/mL
same,Plasma concentration,"PO, Time 3 h",0.247 µg/mL and 0.204 µg/mL
same,Plasma concentration,"PO, Time 7 h",0.141 µg/mL and 0.122 µg/mL
same,Plasma concentration,"PO, Time 24 h",0.00808 µg/mL and 0.0046 µg/mL
same,concentration at 0.5 h,"female, C57BL/6J, mouse, bone (long bones), 10 mg/kg, bone, PO, individual animals, read-out: Bone 6641 PO concentration",20.3 ng/g
same,concentration at 0.083 h,[1],1180 ng/g
same,concentration at 0.25 h,[1],1100 ng/g
same,concentration at 0.5 h,[1],711 ng/g
same,concentration at 1 h,[1],632 ng/g
same,concentration at 3 h,[1],337 ng/g
same,concentration at 7 h,[1],87.9 ng/g
same,concentration at 48 h,"female, C57BL/6J, mouse, bone (long bones), iv, 3 mg/kg, bone, IV, 48 h, individual animals, N/A: Below detection level, read-out: Bone 6641 IV concentration",3.84 ng/g
same,concentration at 0.25 h,[2],19.5 ng/g
same,concentration at 0.5 h,[2],54.2 ng/g
same,concentration at 1 h,[2],168 ng/g
same,concentration at 3 h,[2],337 ng/g
same,concentration at 7 h,[2],141 ng/g
same,concentration at 24 h,"female, C57BL/6J, mouse, bone (long bones), po, 10 mg/kg, bone, PO (QD*3), 24 h, individual animals, read-out: Bone 6641 PO (QD*3) concentration",7.05 ng/g
same,concentration at 0.083 h,"female, C57BL/6J, mouse, bone (long bones), po, 10 mg/kg, bone, PO, individual animals, N/A: Below detection level, read-out: Bone 6641 PO concentration",3.07 ng/g
same,concentration at 0.25 h,[3],5.39 ng/g
same,concentration at 0.5 h,[3],27.1 ng/g
same,concentration at 1 h,[3],114 ng/g
same,concentration at 3 h,[3],140 ng/g
